Source: patent US6399561B1, “Methods and compositions for bleaching a dye in solution” (Novozymes A/S, priority 1998, dated 2002)

molecular target: T1, Polyporus pinsitus laccase (Trametes villosa, UniProt Q99044); assay: Bleaching of methyl orange using rPpL and NOH-type enhancing agents (initial bleaching rate); type: biochemical; conditions: pH 4; rPpL solution diluted 1:200; 0.2 mM mediator; 30° C.; large negative numbers = best performance
T1 construct: made in house
T1 sequence (Q99044 22-520): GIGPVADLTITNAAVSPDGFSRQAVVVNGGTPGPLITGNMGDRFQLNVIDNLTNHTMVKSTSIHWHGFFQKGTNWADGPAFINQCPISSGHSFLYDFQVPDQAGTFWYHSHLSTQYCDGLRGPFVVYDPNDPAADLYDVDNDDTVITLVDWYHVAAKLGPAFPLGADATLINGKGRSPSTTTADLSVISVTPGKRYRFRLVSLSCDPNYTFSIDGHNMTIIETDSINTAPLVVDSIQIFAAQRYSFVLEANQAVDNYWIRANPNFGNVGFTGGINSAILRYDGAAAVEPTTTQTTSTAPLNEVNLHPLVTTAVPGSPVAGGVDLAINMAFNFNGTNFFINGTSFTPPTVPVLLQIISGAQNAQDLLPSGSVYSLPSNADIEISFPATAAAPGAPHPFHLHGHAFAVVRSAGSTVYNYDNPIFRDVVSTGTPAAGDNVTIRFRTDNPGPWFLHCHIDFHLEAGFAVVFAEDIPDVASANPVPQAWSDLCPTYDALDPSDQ
Protocol: (§1) Britton-Robinson buffer is composed of:
(§2) Methyl orange (Merck, Germany)
(§3) Reactions were started by addition of enzyme. Absorbance at 464 nm was followed for 3 minutes (readings every 5 seconds) on a Cobas Fara at 30° C. Initial bleaching rates were determined from the first linear part of the progress curves.
(§4) The N—OH compounds listed above were tested as laccase mediators in bleaching of methyl orange with three recombinant laccases (rPpL, rMtL and rCcL) at various pH values. Large negative numbers represent the best performance.

SMILES | Initial changes per minute in A464 nm of methyl orange using rPpL [per minute]
On1nnc2ccccc21 [1-hydroxybenzotriazole, 1-Hydroxybenzotriazole] | −0.206
CC[n+]1ccc(-c2ccc(S(=O)(=O)[O-])cc2)o1.O [2-Ethyl-5-phenylisoxazolium-4′-sulfonate, H2O] | −0.017
O=c1c2ccccc2nnn1O [3-hydroxy-1,2,3-benzotriazin-4(3H)-one, 3-Hydroxy-1,2,3-benzotriazin-4(3H)-one] | −0.020

same assay, conditions: pH 5; rPpL solution diluted 1:200; 0.2 mM mediator; 30° C.; large negative numbers = best performance

SMILES | Initial changes per minute in A464 nm of methyl orange using rPpL [per minute]
On1nnc2ccccc21 [1-hydroxybenzotriazole, 1-Hydroxybenzotriazole] | −0.077
CC[n+]1ccc(-c2ccc(S(=O)(=O)[O-])cc2)o1.O [2-Ethyl-5-phenylisoxazolium-4′-sulfonate, H2O] | −0.017
O=c1c2ccccc2nnn1O [3-hydroxy-1,2,3-benzotriazin-4(3H)-one, 3-Hydroxy-1,2,3-benzotriazin-4(3H)-one] | −0.020

same assay, conditions: pH 6; rPpL solution diluted 1:200; 0.2 mM mediator; 30° C.; large negative numbers = best performance

SMILES | Initial changes per minute in A464 nm of methyl orange using rPpL [per minute]
On1nnc2ccccc21 [1-hydroxybenzotriazole, 1-Hydroxybenzotriazole] | −0.017
CC[n+]1ccc(-c2ccc(S(=O)(=O)[O-])cc2)o1.O [2-Ethyl-5-phenylisoxazolium-4′-sulfonate, H2O] | −0.006
O=c1c2ccccc2nnn1O [3-hydroxy-1,2,3-benzotriazin-4(3H)-one, 3-Hydroxy-1,2,3-benzotriazin-4(3H)-one] | −0.008

same assay, conditions: pH 7; rPpL solution diluted 1:200; 0.2 mM mediator; 30° C.; large negative numbers = best performance

SMILES | Initial changes per minute in A464 nm of methyl orange using rPpL [per minute]
On1nnc2ccccc21 [1-hydroxybenzotriazole, 1-Hydroxybenzotriazole] | −0.005
CC[n+]1ccc(-c2ccc(S(=O)(=O)[O-])cc2)o1.O [2-Ethyl-5-phenylisoxazolium-4′-sulfonate, H2O] | 0.001
O=c1c2ccccc2nnn1O [3-hydroxy-1,2,3-benzotriazin-4(3H)-one, 3-Hydroxy-1,2,3-benzotriazin-4(3H)-one] | 0.000

system: Recombinant Myceliophthora thermophila laccase (rMtL); assay: Bleaching of methyl orange using rMtL and NOH-type enhancing agents (initial bleaching rate); type: biochemical; conditions: pH 4; rMtL solution diluted 1:300; 0.2 mM mediator; 30° C.; large negative numbers = best performance
Protocol: as §1, §2, §3, §4

SMILES | Initial changes per minute in A464 nm of methyl orange using rMtL [per minute]
On1nnc2ccccc21 [1-hydroxybenzotriazole, 1-Hydroxybenzotriazole] | −0.050
CC[n+]1ccc(-c2ccc(S(=O)(=O)[O-])cc2)o1.O [2-Ethyl-5-phenylisoxazolium-4′-sulfonate, H2O] | −0.012
O=c1c2ccccc2nnn1O [3-hydroxy-1,2,3-benzotriazin-4(3H)-one, 3-Hydroxy-1,2,3-benzotriazin-4(3H)-one] | −0.016

same assay, conditions: pH 5; rMtL solution diluted 1:300; 0.2 mM mediator; 30° C.; large negative numbers = best performance

SMILES | Initial changes per minute in A464 nm of methyl orange using rMtL [per minute]
On1nnc2ccccc21 [1-hydroxybenzotriazole, 1-Hydroxybenzotriazole] | −0.019
CC[n+]1ccc(-c2ccc(S(=O)(=O)[O-])cc2)o1.O [2-Ethyl-5-phenylisoxazolium-4′-sulfonate, H2O] | −0.004
O=c1c2ccccc2nnn1O [3-hydroxy-1,2,3-benzotriazin-4(3H)-one, 3-Hydroxy-1,2,3-benzotriazin-4(3H)-one] | −0.011

same assay, conditions: pH 6; rMtL solution diluted 1:300; 0.2 mM mediator; 30° C.; large negative numbers = best performance

SMILES | Initial changes per minute in A464 nm of methyl orange using rMtL [per minute]
On1nnc2ccccc21 [1-hydroxybenzotriazole, 1-Hydroxybenzotriazole] | −0.007
CC[n+]1ccc(-c2ccc(S(=O)(=O)[O-])cc2)o1.O [2-Ethyl-5-phenylisoxazolium-4′-sulfonate, H2O] | −0.002
O=c1c2ccccc2nnn1O [3-hydroxy-1,2,3-benzotriazin-4(3H)-one, 3-Hydroxy-1,2,3-benzotriazin-4(3H)-one] | −0.001

same assay, conditions: pH 7; rMtL solution diluted 1:300; 0.2 mM mediator; 30° C.; large negative numbers = best performance

SMILES | Initial changes per minute in A464 nm of methyl orange using rMtL [per minute]
On1nnc2ccccc21 [1-hydroxybenzotriazole, 1-Hydroxybenzotriazole] | −0.002
CC[n+]1ccc(-c2ccc(S(=O)(=O)[O-])cc2)o1.O [2-Ethyl-5-phenylisoxazolium-4′-sulfonate, H2O] | 0.000
O=c1c2ccccc2nnn1O [3-hydroxy-1,2,3-benzotriazin-4(3H)-one, 3-Hydroxy-1,2,3-benzotriazin-4(3H)-one] | 0.002

system: Recombinant Coprinus cinereus laccase (rCcL); assay: Bleaching of methyl orange using rCcL and NOH-type enhancing agents (initial bleaching rate); type: biochemical; conditions: pH 4; rCcL solution diluted 1:200; 0.2 mM mediator; 30° C.; large negative numbers = best performance
Protocol: as §1, §2, §3, §4

SMILES | Initial changes per minute in A464 nm of methyl orange using rCcL [per minute]
On1nnc2ccccc21 [1-hydroxybenzotriazole, 1-Hydroxybenzotriazole] | −0.016
CC[n+]1ccc(-c2ccc(S(=O)(=O)[O-])cc2)o1.O [2-Ethyl-5-phenylisoxazolium-4′-sulfonate, H2O] | 0.005
O=c1c2ccccc2nnn1O [3-hydroxy-1,2,3-benzotriazin-4(3H)-one, 3-Hydroxy-1,2,3-benzotriazin-4(3H)-one] | 0.004

same assay, conditions: pH 5; rCcL solution diluted 1:200; 0.2 mM mediator; 30° C.; large negative numbers = best performance

SMILES | Initial changes per minute in A464 nm of methyl orange using rCcL [per minute]
On1nnc2ccccc21 [1-hydroxybenzotriazole, 1-Hydroxybenzotriazole] | −0.018
CC[n+]1ccc(-c2ccc(S(=O)(=O)[O-])cc2)o1.O [2-Ethyl-5-phenylisoxazolium-4′-sulfonate, H2O] | 0.000
O=c1c2ccccc2nnn1O [3-hydroxy-1,2,3-benzotriazin-4(3H)-one, 3-Hydroxy-1,2,3-benzotriazin-4(3H)-one] | −0.004

same assay, conditions: pH 6; rCcL solution diluted 1:200; 0.2 mM mediator; 30° C.; large negative numbers = best performance

SMILES | Initial changes per minute in A464 nm of methyl orange using rCcL [per minute]
On1nnc2ccccc21 [1-hydroxybenzotriazole, 1-Hydroxybenzotriazole] | −0.019
CC[n+]1ccc(-c2ccc(S(=O)(=O)[O-])cc2)o1.O [2-Ethyl-5-phenylisoxazolium-4′-sulfonate, H2O] | −0.006
O=c1c2ccccc2nnn1O [3-hydroxy-1,2,3-benzotriazin-4(3H)-one, 3-Hydroxy-1,2,3-benzotriazin-4(3H)-one] | −0.011

same assay, conditions: pH 7; rCcL solution diluted 1:200; 0.2 mM mediator; 30° C.; large negative numbers = best performance

SMILES | Initial changes per minute in A464 nm of methyl orange using rCcL [per minute]
On1nnc2ccccc21 [1-hydroxybenzotriazole, 1-Hydroxybenzotriazole] | −0.017
CC[n+]1ccc(-c2ccc(S(=O)(=O)[O-])cc2)o1.O [2-Ethyl-5-phenylisoxazolium-4′-sulfonate, H2O] | −0.004
O=c1c2ccccc2nnn1O [3-hydroxy-1,2,3-benzotriazin-4(3H)-one, 3-Hydroxy-1,2,3-benzotriazin-4(3H)-one] | −0.008

same assay, conditions: pH 8; rCcL solution diluted 1:200; 0.2 mM mediator; 30° C.; large negative numbers = best performance

SMILES | Initial changes per minute in A464 nm of methyl orange using rCcL [per minute]
On1nnc2ccccc21 [1-hydroxybenzotriazole, 1-Hydroxybenzotriazole] | −0.005
CC[n+]1ccc(-c2ccc(S(=O)(=O)[O-])cc2)o1.O [2-Ethyl-5-phenylisoxazolium-4′-sulfonate, H2O] | −0.001
O=c1c2ccccc2nnn1O [3-hydroxy-1,2,3-benzotriazin-4(3H)-one, 3-Hydroxy-1,2,3-benzotriazin-4(3H)-one] | −0.002
